Assay results reported in publication PMC8815882, “Screening the pandemic response box identified benzimidazole carbamates, Olorofim and ravuconazole as promising drug candidates for the treatment of eumycetoma” (PLoS Neglected Tropical Diseases, 2022).
pIC50: −log10 of the molar value. In brackets after ≈: the same amount, converted by molar mass. Where two headings read alike, the source gives them in different places.

Legend:
M. mycetomatis MM55 = assay: IC50 determination, 2-fold dilution series 16 to 0.03125 μM; assay type: cell-based, Madurella mycetomatis; details: for pIC50 / IC90: Madurella mycetomatis
[1] = test system: ten different M. mycetomatis isolates; assay: MIC / MIC50 determination (XTT) in ten M. mycetomatis isolates; assay type: cell-based, Madurella mycetomatis; details: Madurella mycetomatis
[2] = test system: M. mycetomatis isolate MM55; assay: M. mycetomatis grain infection model in G. mellonella larvae, survival; assay type: in vivo, Galleria mellonella; parameters: In vivo efficacy, Larvae survival %: concentration or dose not given beside the values
[3] = test system: M. mycetomatis genome strain MM55; assay: CLSI M38-A2 based in vitro susceptibility screening (XTT or resazurin), growth at fixed concentration; assay type: cell-based, Madurella mycetomatis; details: Madurella mycetomatis; for Percent fungal survival at 100 µM: replicate 2, M. mycetomatis MM55, read-out: Percentage survival at 100um, 100 uM A (second replicate column)
[4] = MM55, Table 2, M. mycetomatis MM55, read-out: IC50
[5] = median MIC over ten M. mycetomatis isolates, no asterisk, read-out: MIC50
[6] = isolate CBS247.48, read-out: MIC CBS247.48
[7] = isolate MM14, read-out: MIC MM14
[8] = isolate MM45, read-out: MIC MM45
[9] = isolate MM55, read-out: MIC MM55
[10] = isolate ParijsAl1, read-out: MIC ParijsAl1
[11] = isolate Peru72012, read-out: MIC Peru72012
[12] = MM55, mean of replicates, read-out: IC90 mean
[13] = MM55, replicate 1, read-out: IC90 1 um
[14] = MM55, replicate 2, read-out: IC90 2 um
[15] = MM55, replicate 3, read-out: IC90 3 um
[16] = over the tested M. mycetomatis isolates, read-out: MIC50 mean
[17] = G. mellonella larvae infected with M. mycetomatis
[18] = mean of three, M. mycetomatis MM55, read-out: Percentage survival at 25um, 25 uM mean
[19] = replicate A, M. mycetomatis MM55, read-out: Percentage survival at 25um, 25 um A
[20] = replicate B, M. mycetomatis MM55, read-out: Percentage survival at 25um, 25 uM B
[21] = replicate C, M. mycetomatis MM55, read-out: Percentage survival at 25um, 25 uM C
[22] = mean of three, M. mycetomatis MM55, read-out: Percentage survival at 100um, 100 uM mean
[23] = replicate 1, M. mycetomatis MM55, read-out: Percentage survival at 100um, 100 uM A (first replicate column)
[24] = replicate 3, M. mycetomatis MM55, read-out: Percentage survival at 100um, 100 uM A (third replicate column)

Structure (SMILES)	pIC50 (M. mycetomatis MM55; [4])	MIC50 [1, 5]	MIC [1, 6]	MIC [1, 7]	MIC [1, 8]	MIC [1, 9]	MIC ([1]; isolate P1, read-out: MIC P1)	MIC [1, 10]	MIC [1, 11]	MIC ([1]; isolate So1, read-out: MIC So1)	MIC ([1]; isolate i1, read-out: MIC i1)	MIC ([1]; isolate i11, read-out: MIC i11)	Drug static or cidal (M. mycetomatis MM55; M. mycetomatis)	IC90 (M. mycetomatis MM55; [12])	IC90 (M. mycetomatis MM55; [13])	IC90 (M. mycetomatis MM55; [14])	IC90 (M. mycetomatis MM55; [15])	MIC50 [1, 16]	In vivo efficacy, Enhanced survival compared to control? [2, 17]	In vivo efficacy, Larvae survival % [2, 17]	further results
Clc1cc(Cl)c2c(c1)CCc1ccccc1C2n1ccnc1 (stereo not shown) [MMV1634492, Eberconazole, reference compound]	6.14	0.5 µM (≈ 0.165 µg/mL)	2 µM (≈ 0.658 µg/mL)	0.125 µM (≈ 0.0412 µg/mL)	4 µM (≈ 1.32 µg/mL)	0.5 µM (≈ 0.165 µg/mL)	1 µM (≈ 0.329 µg/mL)	0.125 µM (≈ 0.0412 µg/mL)	0.5 µM (≈ 0.165 µg/mL)	0.125 µM (≈ 0.0412 µg/mL)	0.0625 µM (≈ 0.0206 µg/mL)	1 µM (≈ 0.329 µg/mL)									Drug static or cidal (M. mycetomatis MM55): Cidal; IC90 (M. mycetomatis MM55; MM55, read-out: IC90 mean): 1290 nM; pIC50 (M. mycetomatis MM55; MM55, replicate 1, read-out: IC50 1): 6.24; IC90 (M. mycetomatis MM55; MM55, replicate 1, read-out: IC90 1): 1300 nM; pIC50 (M. mycetomatis MM55; MM55, replicate 2, read-out: IC50 2): 6.11; IC90 (M. mycetomatis MM55; MM55, replicate 2, read-out: IC90 2): 1210 nM; pIC50 (M. mycetomatis MM55; MM55, replicate 3, read-out: IC50 3): 6.10; IC90 (M. mycetomatis MM55; MM55, replicate 3, read-out: IC90 3): 1350 nM; MIC50 ([1]; over the isolates tested, read-out: MIC50 mean): 0.5 µM (≈ 0.165 µg/mL); Effect on larvae survival Day 4 (words) ([2]; 20 μM per larvae, vs infected control, day four): prolonged larvae survival; In vivo efficacy, Enhanced survival compared to control? ([2]; in vivo): no; In vivo efficacy, Larvae survival % ([2]; in vivo): 13.3%; activity at 25 µM ([3]; mean, read-out: Percentage survival at 25um, 25 uM mean): -1.12%; activity at 25 µM ([3]; replicate A, read-out: Percentage survival at 25um, 25 um A): -3.02%; activity at 25 µM ([3]; replicate B, read-out: Percentage survival at 25um, 25 uM B): -4.98%; activity at 25 µM ([3]; replicate C, read-out: Percentage survival at 25um, 25 uM C): 4.64%; activity at 100 µM ([3]; mean, read-out: Percentage survival at 100um, 100 uM mean): 3.3%; activity at 100 µM ([3]; replicate (first column), read-out: Percentage survival at 100um, 100 uM A): -3.84%; activity at 100 µM ([3]; replicate (second column), read-out: Percentage survival at 100um, 100 uM A): 6.56%; activity at 100 µM ([3]; replicate (third column), read-out: Percentage survival at 100um, 100 uM A): 7.19%
CCCCC(CC)CNC(=N)NC(=N)NCCCCCCNC(=N)NC(=N)NCC(CC)CCCC (stereo not shown) [MMV396785, Alexidine, reference compound]	5.59	2 µM (≈ 1.02 µg/mL)	1 µM (≈ 0.509 µg/mL)	2 µM (≈ 1.02 µg/mL)	2 µM (≈ 1.02 µg/mL)	2 µM (≈ 1.02 µg/mL)	2 µM (≈ 1.02 µg/mL)	4 µM (≈ 2.04 µg/mL)	4 µM (≈ 2.04 µg/mL)	2 µM (≈ 1.02 µg/mL)	2 µM (≈ 1.02 µg/mL)	2 µM (≈ 1.02 µg/mL)	Static	4260 nM	3950 nM	4400 nM	4420 nM	2 µM (≈ 1.02 µg/mL)	no	2.2%	pIC50 (M. mycetomatis MM55; MM55, mean of replicates, read-out: IC50 mean): 5.59; pIC50 (M. mycetomatis MM55; MM55, replicate 1, read-out: IC50 1 um): 5.67; pIC50 (M. mycetomatis MM55; MM55, replicate 2, read-out: IC50 2 um): 5.57; pIC50 (M. mycetomatis MM55; MM55, replicate 3, read-out: IC50 3 um): 5.55; activity at 25 µM [3, 18]: 1.02%; activity at 25 µM [3, 19]: -0.617%; activity at 25 µM [3, 20]: 1.64%; activity at 25 µM [3, 21]: 2.05%; activity at 100 µM [3, 22]: 7.33%; activity at 100 µM [3, 23]: -1.99%; Percent fungal survival at 100 µM [3]: 7.87%; activity at 100 µM [3, 24]: 16.1%
Clc1ccc(COC(Cn2ccnc2)c2ccc(Cl)cc2Cl)c(Cl)c1 (stereo not shown) [MMV002722]			0.125 µM (≈ 0.052 µg/mL)			0.25 µM (≈ 0.104 µg/mL)	0.06 µM (≈ 0.025 µg/mL)	> 0.03 µM	0.06 µM (≈ 0.025 µg/mL)	0.125 µM (≈ 0.052 µg/mL)	> 0.03 µM	0.5 µM (≈ 0.208 µg/mL)	Cidal	1230 nM	750 nM	2600 nM	340 nM	0.125 µM (≈ 0.052 µg/mL)	no	8.9%	activity at 25 µM [3, 18]: 1.83%; activity at 25 µM [3, 19]: 0.653%; activity at 25 µM [3, 20]: 1.37%; activity at 25 µM [3, 21]: 3.48%; activity at 100 µM [3, 22]: 8.62%; activity at 100 µM [3, 23]: 1.56%; Percent fungal survival at 100 µM [3]: 6.95%; activity at 100 µM [3, 24]: 17.4%
